Results taken from patent publication US6071913A, “Angiotensin II receptor antagonistic 1,2,4-triazin-5-one derivatives” (Development Center for Biotechnology, priority 1997, dated 2000).
pIC50: −log10 of the molar value. Read-outs that look alike come from different tables or passages of the source.

Biological target: T1, Angiotensin II Type I Receptor (Homo sapiens, UniProt P30556)
T1 construct: purchased NEN Research Products NED-014
T1 sequence (P30556 1-359): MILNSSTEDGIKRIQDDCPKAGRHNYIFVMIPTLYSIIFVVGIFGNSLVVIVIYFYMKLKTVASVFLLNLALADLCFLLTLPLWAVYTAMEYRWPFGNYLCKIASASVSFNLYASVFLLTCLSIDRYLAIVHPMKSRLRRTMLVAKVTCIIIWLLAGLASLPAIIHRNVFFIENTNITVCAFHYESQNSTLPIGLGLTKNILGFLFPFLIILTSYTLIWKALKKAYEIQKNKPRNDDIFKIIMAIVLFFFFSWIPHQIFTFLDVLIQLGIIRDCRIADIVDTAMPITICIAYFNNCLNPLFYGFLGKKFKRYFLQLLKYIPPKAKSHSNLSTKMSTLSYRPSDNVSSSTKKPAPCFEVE
Assay: Binding affinity to Angiotensin II receptor ([125I]-Sar1,Ile8-Angiotensin II radioligand, Angiotensin II Type I Receptor Kit NED-014)
Experimental: The binding affinity of the compounds of the above Examples I to IX to angiotensin II receptor was tested. The procedures and results are as follows:
Assay for the Binding Affinity to Angiotensin II Receptor
The antagonistic activity of angiotensin II receptor was assayed by Angiotensin II Type I Receptor Kit (NED-014 NENQUEST Drug Discovery System, NEN Research Products, Massachusettes, USA). The kit comprises Angiotensin II Type I Receptor Concentrate, radioligand [^125 I]-Sar^1,Ile^8 -Angiotensin II Concentrate (5 Ci), Standard Concentrate (DuP 753, […]), Diluent Concentrate, and Filter-Soak Concentrate. In accordance with the manual of
NED-014 kit, the Radioligand Concentrate, Receptor Concentrate and Filter-Soak Concentrate were diluted with deionized water, and stored under suitable temperatures (-70° C. or ambient temperature).
1. Filter Device: Hoefer FH 224 V, Hoefer Scientific Instruments Inc., California, USA; Vacuum pressure=15 in. Hg.
2. γ-Counter: Beckman 5500, Beckman Instruments Inc., […]., USA.
The reagents were thawed on ice on the day of assays. Two sets of tubes, each with two tubes, were used, one for non-specific binding (NSB) and the other for total binding (TB). A series of standard solutions (with the final concentrations of 0.5, 1, 2, 5, 10, 20, 50 and 100 nM) were prepared. The tested compounds were dissolved and diluted to 500 nM for preliminary screening. […] To the NSB tubes were added 25 μL Standard Concentrate solutions, to the TB tubes were added 25 μL Diluent Concentration, and to other tubes were added 25 μL the solutions of tested compounds. Then, 25 μL radioligand were added to each tube (including the two tubes for total counts, TC). The two TC tubes were used later for the determination of the dosage of radioligand added to each tube. To the rest tubes, 200 μL Receptor Concentration solutions were added. The tubes were allowed to stand for 3 hours to reach equibilium completely. Filter papers (Sigma Catalog No. 1822024) were soaked in the Filter-Soak solution, and placed in the filter device. The contents in the tubes were poured onto the filter papers, and washed with saline twice. The slightly dry filter papers were placed into the γ-counter and counted with two minutes counter.
The data are expressed as counts per minute (CPM). Net CPM for Specific Binding of standards or tested compounds is defined as the CPM thereof minus that of NSP and calculated by equation 1:
CPMnet =CPMtested compounds or standard -CPMnon-specific
With the above equation, the Net CPM for Specific Binding of tested compounds and standards can be obtained.
Inhibition (% B/B0) is defined as the net CPM for Specific Binding over that of standard at 0 concentration and calculated by equation 2:
Inhibition (% B/B0) of tested compound=CPMnet of standard at 0
IC50 is defined as the concentration of compound corresponding 50% inhibition. IC50 of tested compounds can be obtained with EBDA software by calculating the inhibition (% B/B0) of the tested compounds at 7 different concentrations. In addition, as the binding activity of a series of compounds is correlated with receptors, IC50 of the tested compounds can also be obtained by equation 3 established from known IC50 and inhibition (% B/B0) of the series compounds: […]

[1] = marked * Calculated, read-out: IC50 (*Calculated)
[2] = concentration of compound corresponding to 50% inhibition, EBDA software, inhibition at 7 different concentrations, 3 hours incubation, read-out: IC50

Row | SMILES | pIC50 [1] | pIC50 [2]
1 | CCCCc1nnc(C)c(=O)n1Cc1ccc(-c2ccccc2-c2nnn[nH]2)cc1 [L, 6-methyl-3-butyl-5-oxo-4-[[2'-(1H-tetrazol-5-yl)biphenyl-4yl]methyl]-1,2,4-triazine] | 6.51 | –
2 | CCCCc1nc(=O)c(-c2ccccc2)nn1Cc1ccc(-c2ccccc2-c2nnn[nH]2)cc1 [N, 6-phenyl-3-butyl-5-oxo-2-[[2'-(1H-tetrazol-5-yl)biphenyl-4-yl]methyl]-1,2,4-triazine] | – | 6.47
3 | CCCCc1nnc(-c2ccccc2)c(=O)n1Cc1ccc(-c2ccccc2-c2nnn[nH]2)cc1 [O, 6-phenyl-3-butyl-5-oxo-4-[[2'-(1H-tetrazol-5-yl)biphenyl-4-yl]methyl]-1,2,4-triazine] | 7.20 | –
4 | CCCCc1nc(=O)c(CCc2ccccc2)nn1Cc1ccc(-c2ccccc2-c2nnn[nH]2)cc1 [S, 6-(2'-phenylethyl)-3-butyl-5-oxo-2-[[2'-(1H-tetrazol-5-yl)biphenyl-4-yl]methyl]-1,2,4-triazine] | – | 7.17
5 | CCCCc1nnc(CCc2ccccc2)c(=O)n1Cc1ccc(-c2ccccc2-c2nnn[nH]2)cc1 [T, 6-(2'-phenylethyl)-3-butyl-5-oxo-4-[[2'-(1H-tetrazol-5-yl)biphenyl-4-yl]methyl]-1,2,4-triazine] | – | 7.26
6 | CCCCc1nc(Cl)c(CCc2ccccc2)c(=O)n1Cc1ccc(-c2ccccc2-c2nnn[nH]2)cc1 [V, 2-butyl-5-(2'-phenylethyl)-6-chloro-3-[[2'-(1H-tetrazol-5-yl)biphenyl-4-yl]methyl]-4(3H)-pyrimidinone] | 7.14 | –
